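Values below derive from 48-hour exposures of cells grown in 96-well plates, with endpoints linearly interpolated between the two concentrations bracketing the appropriate inhibition level. At the TGI there is no net growth.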
Columns and labels:
Experiment in all cases: DTP human tumour cell line panel, 48 h
ACHN renal = tested on: ACHN renal
BT-549 breast = tested on: BT-549 breast
EKVX NSCLC = tested on: EKVX NSCLC
HCT-116 colon = tested on: HCT-116 colon
KM12 colon = tested on: KM12 colon
NCI-H23 lung = tested on: NCI-H23 lung
OVCAR-8 ovarian = tested on: OVCAR-8 ovarian
SF-268 CNS = tested on: SF-268 CNS
SK-MEL-2 melanoma = tested on: SK-MEL-2 melanoma
T-47D breast = tested on: T-47D breast
NCI-H226 lung = tested on: NCI-H226 lung
NCI-H460 lung = tested on: NCI-H460 lung
UACC-257 melanoma = tested on: UACC-257 melanoma

| Structure (SMILES) | TGI (ACHN renal) | TGI (BT-549 breast) | TGI (EKVX NSCLC) | TGI (HCT-116 colon) | TGI (KM12 colon) | TGI (NCI-H23 lung) | TGI (OVCAR-8 ovarian) | TGI (SF-268 CNS) | TGI (SK-MEL-2 melanoma) | TGI (T-47D breast) | TGI (NCI-H226 lung) | TGI (NCI-H460 lung) | TGI (UACC-257 melanoma) |
| --- | --- | --- | --- | --- | --- | --- | --- | --- | --- | --- | --- | --- | --- |
| COc1ccc(/C=N/NC(=S)Nc2cc(C)ccc2OC)cc1 | > 100 µM | 88.8 µM | 59.5 µM | > 100 µM | > 100 µM | 73.8 µM | > 100 µM | > 100 µM | 43.8 µM | > 100 µM |  |  |  |
| CC(CC=O)Nc1nn2c(=O)c3ccccc3nc2s1 (stereo not drawn) | > 100 µM | > 100 µM | > 100 µM | > 100 µM | > 100 µM | > 100 µM | > 100 µM | > 100 µM | > 100 µM | > 100 µM | > 100 µM | > 100 µM | > 100 µM |
| CC(=O)C(C(C)=O)[C@H]1OC(C)(C)O[C@H]1[C@H]1COC(C)(C)O1 | > 100 µM | 90.5 µM | > 100 µM | > 100 µM | > 100 µM | > 100 µM | > 100 µM | > 100 µM | 58.8 µM | > 100 µM |  | > 100 µM | > 100 µM |
| CN(C)C(=O)Oc1ccc(C(=S)Nc2ccccc2)cc1 | > 100 µM | 79.7 µM | > 100 µM | > 100 µM | > 100 µM | > 100 µM | 64 µM | > 100 µM | > 100 µM | > 100 µM |  | > 100 µM | > 100 µM |
| C[n+]1c2ccccc2c(C(=O)Nc2ccc(S(=O)(=O)Nc3ncccn3)cc2)c2ccccc21 | > 100 µM | > 100 µM | > 100 µM | > 100 µM | > 100 µM | > 100 µM | > 100 µM | > 100 µM | > 100 µM | > 100 µM | > 100 µM | > 100 µM | > 100 µM |
| Cc1cc(C)nc(NS(=O)(=O)c2ccc(Nc3c4ccccc4nc4ccc(C(=O)Nc5ccc(S(=O)(=O)N=C(N)N)cc5)cc34)cc2)n1 | > 100 µM | 95.2 µM | > 100 µM | > 100 µM | > 100 µM | > 100 µM | > 100 µM | > 100 µM | > 100 µM | > 100 µM | > 100 µM | > 100 µM | > 100 µM |
| COc1cccc(N=NN2CCCC2)c1 | > 100 µM | > 100 µM | > 100 µM | > 100 µM | > 100 µM | > 100 µM | > 100 µM | > 100 µM | > 100 µM | > 100 µM | > 100 µM | > 100 µM | > 100 µM |
| O=C1C=C/C(=C/[C@H]2SSC=C[C@]23C=CC(=O)C3)C1 | 55.5 µM | 46.8 µM | 63.6 µM | 22 µM | 46.6 µM | 44.1 µM | > 81 µM | > 85.2 µM | > 76.2 µM | > 100 µM | 29.2 µM | > 94.3 µM | 99.8 µM |
| CCOC(=O)c1cc2c3c(cc(OC)c2[nH]1)N(C(=O)OCC)CC3 |  | > 100 µM | > 100 µM | > 100 µM | > 100 µM | > 100 µM | > 100 µM | > 100 µM | > 100 µM | > 100 µM | > 100 µM | > 100 µM | > 100 µM |
| N#CC(NNC(=O)c1ccccc1O)c1c(O)ccc2ccccc12 (stereo not drawn) | 22.2 µM | > 54.8 µM | 51.7 µM | 14.8 µM | > 100 µM | 20.8 µM | 25.9 µM | 64.9 µM | 33.3 µM | 18.7 µM | 13.4 µM | 36.8 µM | 24.9 µM |
| CC1CCCN1CCCOC(=O)c1ccc(OC2C=CCCC2)cc1 (stereo not drawn) | > 100 µM | > 100 µM | > 100 µM | 35.8 µM | > 100 µM | 63.3 µM | > 100 µM | > 100 µM | > 100 µM | 34.4 µM | 86.4 µM | 32.9 µM | > 100 µM |
| COc1ccc(N=Nc2c(N)nn3c(SC)c(C#N)c(N)nc23)cc1 | 28 µM | 49.6 µM | 21.3 µM | 28.4 µM | 30.2 µM | 21.1 µM | 11.7 µM | 11.4 µM | 7.12 µM | 4.3 µM | 40.7 µM | 34.7 µM | 20.8 µM |
| CCOC(=O)c1cn(CC)c2ccc3c(c2c1=O)S(=O)(=O)C=C3 | > 100 µM | > 100 µM | > 100 µM | > 100 µM | > 100 µM | > 100 µM | > 100 µM | > 100 µM | > 100 µM | > 100 µM | > 100 µM | > 100 µM | > 100 µM |
| COC(=O)C(=O)C(C(=O)C(=O)Nc1ccc(C)c(C)c1)c1nc2ccc([N+](=O)[O-])cc2[nH]c1=O (stereo not drawn) | > 100 µM | > 100 µM | > 100 µM | > 100 µM | > 100 µM | > 100 µM | > 100 µM | > 100 µM | > 100 µM | > 100 µM | > 100 µM | > 100 µM | > 100 µM |
| CC(=O)O[C@H]1C(=O)[C@@]2(C)[C@H]([C@H](OC(=O)c3ccco3)[C@]3(O)C[C@H](OC(=O)[C@H](O)[C@@H](NC(=O)c4ccccc4)c4ccccc4)C(C)=C1C3(C)C)[C@]1(OC(C)=O)CO[C@@H]1C[C@@H]2O | > 25 µM | > 25 µM | > 25 µM |  | > 25 µM | > 25 µM | > 17.2 µM | > 25 µM | 0.578 µM | > 25 µM | > 5.05 µM | > 13 µM | > 25 µM |
| CSc1nc[nH]c1C(N)=S | > 100 µM | > 100 µM | > 100 µM | > 100 µM | > 100 µM | > 100 µM | > 100 µM | > 100 µM | > 100 µM | > 100 µM | > 100 µM |  | > 100 µM |
| Cc1cc(=O)n2nc(CSc3nnc(Sc4cc(O)ccc4O)s3)sc2n1 | > 100 µM | > 100 µM | > 100 µM | 41.2 µM | > 100 µM | > 100 µM | > 100 µM | > 100 µM | > 100 µM | 73.6 µM | > 100 µM | > 100 µM | > 100 µM |
